Reference: publication PMC4464424, “Peptide–polymer ligands for a tandem WW-domain, an adaptive multivalent protein–protein interaction: lessons on the thermodynamic fitness of flexible ligands” (Beilstein Journal of Organic Chemistry, 2015)
Like-named read-outs stand apart in the source and are kept apart here. Ends that are not written are not given here.

Experiments:
[1] = molecular target: T1, tandem WW domain of FBP21 (Homo sapiens, UniProt O75554); experiment: Isothermal titration calorimetry (ITC) of peptide–polymer conjugates with tandem WW domain; format: binding; conditions: for Binding stoichiometry (peptide ligands per protein receptor): ratio of peptide ligand molecules relative to each protein binding site
T1 construct: multivalent peptide-polymer conjugates and the tandem WW domain of protein FBP21 determined at 8 °C by ITC measurements; made in house; host or cells: E. coli BL21 (DE3)
T1 sequence (O75554 122-196 limits assumed): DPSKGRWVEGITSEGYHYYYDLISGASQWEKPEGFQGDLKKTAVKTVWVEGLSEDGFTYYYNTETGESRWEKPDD
Description: Binding studies with peptide–polymer conjugates were conducted employing isothermal titration calorimetry (ITC). This method enables the determination of the binding affinity of the multivalent ligands and elucidates the composition of the free energy of binding from the enthalpic and entropic contributions. In addition, the method can be used to determine the stoichiometry of the formed protein–ligand complex indicating the ratio of peptide ligand molecules relative to each protein binding site thereby giving valuable insights into the multivalency of binding and/or the degree of crosslinking. Thus, the method enables the identification of polymer–protein aggregates containing several polymers and proteins in a complex. No precipitation of the multicomponent aggregates that interfered with ITC measurements was observed during the experiments.
ITC-analysis (Figure 2) of the binding of multivalent peptide–polymer conjugates yielded KD values either corresponding to the polymer concentration or relative to the overall peptide concentration (N*KD). […] Binding in all cases was driven mainly by enthalpy, which clearly outweighed the observed entropy loss. In the seven peptide–polymer conjugates investigated, increased loading density of ligands led consistently to increased affinity of the multivalent ligand (Table 1). The most significant difference between dextran and the two other polymer carriers was the stoichiometry of the formed peptide-polymer–protein complex. […] Corresponding to the observed colloidal suspension/dispersion the stoichiometry of peptide ligands per protein receptor resulting from the ITC experiments was >2 for each of either pHPMA or hPG-based material, most pronounced for pHPMA with n = 2.6–2.8.
Figure 2 Representative ITC-measurements conducted at 8 °C with the peptide–polymer conjugates A) pHPMA-1 and B) Dex-2 showing an increase in affinity for the interaction of Dex-2 with the FBP21 tandem WW domains. […]
Isothermal Titration Calorimetry (ITC) Experiments
All samples for ITC were prepared with the phosphate buffer used for protein purification. A 10 mM stock solution of the peptide polymer conjugate in PBS was prepared and adjusted to pH 7.4 with a 50 mM NaOH solution in PBS. Aliquots of the stock solution were diluted to the final concentration of 1.5-2 mM with PBS.
Proteins were expressed as His- or GST-tagged fusion constructs in E.coli BL21 (DE3), purified by the corresponding affinity matrices, thrombin cleaved and applied to a gel filtration column (superdex-75) at 50 mM phosphate, 150 mM NaCl, 1 mM EDTA, pH 6.5 or 1xPBS, 1 mM EDTA, pH 7.4. Proteins were concentrated by Cen-trifugal Filter Units (regenerated cellulose, 3 kDa cut-off, Millipore) if necessary.
2 µl aliquots of peptide-polymer conjugates were titrated into a 50-70 µM protein solution inside the calorimeter cell (200 µl) while the reaction mixture was continuously stirred at 1000 rpm. Ligand concentration in the titration syringe was typically in 20-time excess corresponding to protein. Time intervals between injections were adjusted to 240 s which was sufficient for the heat signal to return to baseline level. In control experiments peptide-polymer conjugates were injected into […]
The heats of dilution were subtracted from the heats determined in the corresponding protein-ligand binding experiments. Automated baseline adjustment and peak integration were accomplished with the public-domain software NITPIC [5]. Estimation of best-fit parameter values by nonlinear least-squares fitting and calculation of 95% confidence intervals were performed with the public-domain software SEDPHAT [6].
Polymer-attached peptides were considered as monovalent ligands, and the tandem WW protein as receptor molecule with two similar independent binding sites. Binding was analysed in terms of simple hetero-association model. Corresponded calculation gives the microscopic binding constants that characterise the binding affinity of […]

[2] = molecular target: T1, tandem WW domain of FBP21; conditions: peptide alone, read-out: dissociation constant (KD); cited from earlier work
Source text: ITC-analysis (Figure 2) of the binding of multivalent peptide–polymer conjugates yielded KD values either corresponding to the polymer concentration or relative to the overall peptide concentration (N*KD).

pHPMA-1 = molecular target: T2, pHPMA-1 (also: 6 peptides conjugated to pHPMA polymer); experiment: ITC
T2 chain: CGPPPRGPPPR-NH2

Dex-3 = molecular target: T3, Dex-3 (also: 8 peptides conjugated to 50 kDa dextran); experiment: ITC
T3 chain: CGPPPRGPPPR-NH2

P1 = molecular target: T4, P1; experiment: ITC
T4 chain: GPPPRGPPPR-NH2

hPG-1 = molecular target: T5, hPG-1 (also: 3 peptides conjugated to hyperbranched polyglycerol); experiment: ITC
T5 chain: CGPPPRGPPPR-NH2

Dex-2 = molecular target: T6, Dex-2 (also: 6 peptides conjugated to 10 kDa dextran); experiment: ITC
T6 chain: CGPPPRGPPPR-NH2

Dex-1 = molecular target: T7, Dex-1 (also: 3 peptides conjugated to 10 kDa dextran); experiment: ITC
T7 chain: CGPPPRGPPPR-NH2

pHPMA-2 = molecular target: T8, pHPMA-2 (also: 9 peptides conjugated to pHPMA polymer); experiment: ITC
T8 chain: CGPPPRGPPPR-NH2

[3] = ITC at 8 °C, PBS pH 7.4, 2 µl aliquots of conjugate titrated into 50-70 µM protein, KD related to polymer concentration, 1:1 binding model, read-out: KD (binding affinities of peptide–polymer conjugates)

Molecule | Kd [1, 3] | Binding stoichiometry (peptide ligands per protein receptor) ([1]; ITC at 8 °C) | other results
Ac-GPPPRGPPPR-NH2 [Ac-P1] | > 1000 µM |  | Kd ([1]; ITC at 8 °C, PBS pH 7.4, related to overall peptide concentration, N = number of ligands per polymer, read-out: Rel. KD = N*KD (binding affinity related to overall peptide concentration)): > 1000 µM
CGPPPRGPPPR [Dex-1] | 7 ± 1.2 µM | 1.8 | 
CGPPPRGPPPR [Dex-2] |  | 1.4 | 
CGPPPRGPPPR [Dex-3] |  | 1.3 | 
GPPPRGPPPR-NH2 [P1] |  |  | Kd ([1]; monovalent ligand, tandem WW-domain of FBP21, as stated in the abstract, read-out: KD): > 1000 µM; Kd [2]: > 1000 µM
FBP21 tandem WW (protein) DPSKGRWVEGITSEGYHYYYDLISGASQWEKPEGFQGDLKKTAVKTVWVEGLSEDGFTYYYNTETGESRWEKPDD |  |  | Kd (pHPMA-1): 5 µM; Kd (Dex-3): 1.6 µM; Kd (P1): > 1000 µM; Kd (hPG-1): 6.3 µM; Kd (Dex-2): 1.2 µM; Kd (Dex-1): 7 µM; Kd (pHPMA-2): 3.3 µM

The next lines start with results.

Kd [1, 3] | Binding stoichiometry (peptide ligands per protein receptor) ([1]; ITC at 8 °C) | Molecule | other results
 | 2.3 | CGPPPRGPPPR [hPG-1, hyperbranched polyglycerol modified with maleimido groups, coupled with 3 copies of P2] | 
5 ± 1.3 µM | 2.4 | CGPPPRGPPPR [hPG-2, hyperbranched polyglycerol modified with maleimido groups, coupled with 4 copies of P2] | 
5 ± 0.8 µM | 2.6 | CGPPPRGPPPR [pHPMA-1, poly(N-(2-hydroxypropyl)methacrylamide) NCL-polymer conjugated with 6 copies of P2 by native chemical ligation] | 
 | 2.8 | CGPPPRGPPPR [pHPMA-2, poly(N-(2-hydroxypropyl)methacrylamide) NCL-polymer conjugated with 9 copies of P2 by native chemical ligation] | 
